Assay results taken from ChEMBL document CHEMBL1201862, “PubChem BioAssay data set” (2004).
Active and inactive are the calls of the source.

Columns and labels:
[1] = target: T1, DNA repair protein RAD52 homolog (Homo sapiens, UniProt P43351); assay type: functional, biochemical
T1 sequence (P43351 whole entry): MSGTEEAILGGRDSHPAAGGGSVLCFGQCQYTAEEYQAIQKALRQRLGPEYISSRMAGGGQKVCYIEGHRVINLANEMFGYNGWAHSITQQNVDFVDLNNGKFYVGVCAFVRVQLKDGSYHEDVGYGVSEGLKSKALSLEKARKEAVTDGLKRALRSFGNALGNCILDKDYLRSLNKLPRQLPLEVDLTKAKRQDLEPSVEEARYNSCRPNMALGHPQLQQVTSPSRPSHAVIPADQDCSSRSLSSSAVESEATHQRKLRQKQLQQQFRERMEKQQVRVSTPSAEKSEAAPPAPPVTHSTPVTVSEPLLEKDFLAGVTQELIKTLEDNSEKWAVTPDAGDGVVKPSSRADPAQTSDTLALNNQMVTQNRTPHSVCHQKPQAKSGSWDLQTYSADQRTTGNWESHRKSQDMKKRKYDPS

Genome polyprotein = Genome polyprotein (dengue virus type 2, UniProt P29990); assay: Dengue-2 NS5 methyltransferase inhibitors, primary screen, biochemical, confirmation dose response (AID 588689); assay type: functional
Sequence of Genome polyprotein (P29990 2492-3391 limits assumed): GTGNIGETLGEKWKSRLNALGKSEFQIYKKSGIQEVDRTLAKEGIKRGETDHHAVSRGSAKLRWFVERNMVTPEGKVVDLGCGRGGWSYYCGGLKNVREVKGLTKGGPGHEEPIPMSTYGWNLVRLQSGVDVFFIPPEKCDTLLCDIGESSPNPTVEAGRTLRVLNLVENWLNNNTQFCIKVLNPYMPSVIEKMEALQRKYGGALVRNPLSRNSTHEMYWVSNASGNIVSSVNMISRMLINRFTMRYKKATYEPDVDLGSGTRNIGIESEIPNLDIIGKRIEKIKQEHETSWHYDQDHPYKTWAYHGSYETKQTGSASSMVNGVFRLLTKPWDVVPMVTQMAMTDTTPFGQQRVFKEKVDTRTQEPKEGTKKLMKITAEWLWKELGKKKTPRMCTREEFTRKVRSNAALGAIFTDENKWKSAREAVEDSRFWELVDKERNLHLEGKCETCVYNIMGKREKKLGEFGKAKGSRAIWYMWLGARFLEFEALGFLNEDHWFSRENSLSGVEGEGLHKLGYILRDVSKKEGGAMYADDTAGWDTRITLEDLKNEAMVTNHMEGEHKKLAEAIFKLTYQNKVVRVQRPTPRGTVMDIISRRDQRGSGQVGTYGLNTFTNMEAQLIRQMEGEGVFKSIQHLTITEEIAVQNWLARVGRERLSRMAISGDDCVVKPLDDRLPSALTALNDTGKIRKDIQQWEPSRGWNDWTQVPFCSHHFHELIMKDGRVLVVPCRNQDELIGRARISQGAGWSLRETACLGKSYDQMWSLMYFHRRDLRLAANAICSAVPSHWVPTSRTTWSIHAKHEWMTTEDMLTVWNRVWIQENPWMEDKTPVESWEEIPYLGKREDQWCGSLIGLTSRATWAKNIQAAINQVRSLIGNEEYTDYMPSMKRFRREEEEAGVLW

[2] = target: T2, Long-chain-fatty-acid--AMP ligase FadD28 (Mycobacterium tuberculosis, UniProt P9WQ59); assay: Fluorescence polarization aasay to screen for inhibitors that compete for the binding of FadD28 to a bisubstrate Measured in Biochemical System Using Plate Reader - 2147-01_Inhibitor_Dose_CherryPick_Activity.; assay type: functional, Mycobacterium tuberculosis H37Rv
T2 sequence (P9WQ59 whole entry): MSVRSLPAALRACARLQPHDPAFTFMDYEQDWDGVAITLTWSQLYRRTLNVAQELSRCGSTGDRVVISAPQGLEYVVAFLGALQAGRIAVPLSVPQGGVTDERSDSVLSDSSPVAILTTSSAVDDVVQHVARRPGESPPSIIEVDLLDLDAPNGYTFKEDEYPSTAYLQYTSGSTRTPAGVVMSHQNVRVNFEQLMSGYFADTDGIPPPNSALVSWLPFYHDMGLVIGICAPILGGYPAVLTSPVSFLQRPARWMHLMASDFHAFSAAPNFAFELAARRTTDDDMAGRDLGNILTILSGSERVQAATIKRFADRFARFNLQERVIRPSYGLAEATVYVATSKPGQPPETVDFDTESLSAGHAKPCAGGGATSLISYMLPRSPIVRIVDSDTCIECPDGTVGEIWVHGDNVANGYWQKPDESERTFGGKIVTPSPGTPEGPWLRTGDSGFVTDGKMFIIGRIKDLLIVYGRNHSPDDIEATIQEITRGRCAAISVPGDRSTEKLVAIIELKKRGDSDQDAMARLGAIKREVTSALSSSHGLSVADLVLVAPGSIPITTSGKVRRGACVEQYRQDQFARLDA

[3] = target: T3, Corticotropin-releasing factor receptor 2/Corticotropin-releasing factor-binding protein (Homo sapiens, UniProt P24387+Q13324); assay: activators of CRF receptor 2 with binding protein – uHTS hits, confirmation (AID 602473); assay type: functional; settings: read-out: EC50_Mean
T3 sequence (Q13324 whole entry): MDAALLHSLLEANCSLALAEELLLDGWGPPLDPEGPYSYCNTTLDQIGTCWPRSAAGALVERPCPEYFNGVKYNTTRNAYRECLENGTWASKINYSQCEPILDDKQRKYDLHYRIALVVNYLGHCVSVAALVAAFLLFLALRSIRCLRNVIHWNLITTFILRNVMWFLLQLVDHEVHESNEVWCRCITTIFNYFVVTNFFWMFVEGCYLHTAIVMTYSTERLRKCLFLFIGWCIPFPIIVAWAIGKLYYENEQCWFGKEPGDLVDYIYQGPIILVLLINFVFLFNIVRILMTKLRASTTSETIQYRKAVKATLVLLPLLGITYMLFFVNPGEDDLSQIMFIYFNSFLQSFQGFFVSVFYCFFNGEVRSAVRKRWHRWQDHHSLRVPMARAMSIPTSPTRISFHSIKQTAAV
T3 sequence (P24387 whole entry): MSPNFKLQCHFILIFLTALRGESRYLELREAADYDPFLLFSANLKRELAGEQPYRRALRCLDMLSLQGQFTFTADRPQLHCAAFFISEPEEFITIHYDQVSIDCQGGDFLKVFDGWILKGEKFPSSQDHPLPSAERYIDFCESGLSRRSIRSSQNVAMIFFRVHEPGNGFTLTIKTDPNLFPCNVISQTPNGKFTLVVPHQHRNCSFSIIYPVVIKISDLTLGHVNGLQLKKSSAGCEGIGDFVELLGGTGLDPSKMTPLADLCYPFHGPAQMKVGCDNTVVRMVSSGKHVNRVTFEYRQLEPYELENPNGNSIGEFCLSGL

Protein Wnt-3a = Protein Wnt-3a (Mus musculus, UniProt P27467); assay: Wnt3a-driven reporter signaling inhibition, dose response, selectivity assay for Gli-SUFU antagonist project, Wnt-LIGHT cells, luminescence (AID 651570); assay type: functional; settings: read-out: IC50_Mean;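 also: Wnt-LIGHT reporter cells stimulated with conditioned medium from Wnt3a-producing cells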
Sequence of Protein Wnt-3a (P27467 whole entry): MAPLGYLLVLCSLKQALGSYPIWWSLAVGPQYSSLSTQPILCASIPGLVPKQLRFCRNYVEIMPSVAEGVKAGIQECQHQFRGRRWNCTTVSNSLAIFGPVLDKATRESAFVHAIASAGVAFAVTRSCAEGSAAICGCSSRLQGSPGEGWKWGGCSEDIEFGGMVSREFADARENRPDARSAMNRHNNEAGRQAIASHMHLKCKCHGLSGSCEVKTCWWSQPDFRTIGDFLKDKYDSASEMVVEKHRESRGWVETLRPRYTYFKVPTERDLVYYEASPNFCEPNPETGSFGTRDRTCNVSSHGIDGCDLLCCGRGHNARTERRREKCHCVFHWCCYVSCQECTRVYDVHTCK

[4] = NIH-3T3 fibroblast cytotoxicity, dose response, cytotoxicity control, cell-based, fluorescence, Alamar Blue, secondary assay (AID 2327); assay type: functional;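 also: NIH-3T3 mouse fibroblasts cultured with fluconazole at 8 µg/mL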
[5] = C. albicans growth with fluconazole, confirmation, fluorescence, retest (AID 2467); assay type: functional, cell-based
[6] = target: T4, Adenosylmethionine-8-amino-7-oxononanoate aminotransferase (Mycobacterium tuberculosis, UniProt P9WQ81); assay: Mycobacterium tuberculosis BioA enzyme inhibitor Measured in Biochemical System Using Plate Reader - 2163-02_Inhibitor_Dose_CherryPick_Activity.; assay type: functional, Mycobacterium tuberculosis UT205
T4 sequence (P9WQ81 whole entry): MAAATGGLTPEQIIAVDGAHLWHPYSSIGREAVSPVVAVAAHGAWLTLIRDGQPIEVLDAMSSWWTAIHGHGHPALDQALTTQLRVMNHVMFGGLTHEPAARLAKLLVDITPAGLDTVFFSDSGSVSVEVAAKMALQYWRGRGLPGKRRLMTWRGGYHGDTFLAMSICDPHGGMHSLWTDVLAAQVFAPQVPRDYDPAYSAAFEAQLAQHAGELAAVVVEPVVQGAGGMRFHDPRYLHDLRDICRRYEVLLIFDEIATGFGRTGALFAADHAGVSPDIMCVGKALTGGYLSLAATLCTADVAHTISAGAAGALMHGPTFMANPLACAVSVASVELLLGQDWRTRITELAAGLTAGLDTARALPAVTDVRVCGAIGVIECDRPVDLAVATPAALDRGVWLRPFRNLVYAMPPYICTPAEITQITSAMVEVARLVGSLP

[7] = Shn3 3'UTR reporter inhibitors, dose response, cell-based, Clone20 osteoblasts, firefly luciferase, cherry-picked (AID 624132); assay type: functional;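 also: firefly luciferase luminescence from reporter carrying the Shn3 3'UTR in osteoblasts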
[8] = control 3'UTR Renilla luciferase suppression, dose response, counter-screen for Shn3 inhibitor project, cell-based, Clone20-Shn3RL, cherry-picked (AID 624133); assay type: functional
[9] = inhibitors of HIV Env-driven cell fusion, dose response, cherry-pick (AID 652057); assay type: functional, cell-based
[10] = ZM109 Env clade C HIV-1 fusion inhibitors, dose response, HeLa effector, CEM target cells, luciferase, cherry-pick (AID 652058); assay type: functional, cell-based
[11] = off-target signal loss in HeLa-CEM21 co-culture – HeLa F-luc CTL cells, cherry-picked, counter-screen for HIV-1 Env fusion inhibitor project, dose response (AID 652040); assay type: functional, cell-based;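 also: potency for signal decrease marking cytotoxic or nonspecific inhibition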
[12] = inhibitors of clade B AD8 Env fusion, dose response, cell-based, cherry-pick (AID 652062); assay type: functional;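 also: luciferase signal from cell-cell fusion driven by HIV-1 clade B AD8 Env; potency is for inhibitors of fusion seen as a drop in luminescence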
[13] = intracellular Trypanosoma cruzi inhibitors in host cells – cell-based, plate reader, cherry-pick samples, set 3, dose response (AID 651818); assay type: functional;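 also: compounds incubated with infected cells for about four days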

CCN(CC)CCN(Cc1cc2cc3c(cc2nc1O)OCCO3)C(S)=NCCCN(C)C
AC50 [1]: 12.9 µM (active)

O=C(O)c1[nH]c2ccccc2c1C(c1ccccc1)c1c(C(=O)O)[nH]c2ccccc12
IC50 (Genome polyprotein): 16.7 µM (active)
AC50 [2]: 36.5 µM (active)

CC(C)Cc1ccc(C(C)C(=O)Nc2cccnc2)cc1 (stereo not given)
EC50 [3]: > 53 µM (inactive)
IC50 (Protein Wnt-3a): 5.34 µM (active)

C[N+]1(CC(=O)OC2CCCCCCCCCCC2)CCCC1
EC50 [4]: > 150 µM (inconclusive)
EC50 [5]: 1.65 µM (active)
IC50 (Protein Wnt-3a): 28 µM (inactive)

O=C(O)COc1ccccc1-c1nc(-c2ccccc2)c(-c2ccccc2)[nH]1
AC50 [2]: > 100 µM (inactive)

O=C(CSc1nc2c(c(=O)n1-c1ccccc1)SCC2)N1CCN(c2ccccc2)CC1
AC50 [6]: 1.08 µM (active)

CCC(CC)CN1C(N(C)C)=NC[C@@H]1CC(C)C
AC50 [7]: 717 nM (active)
AC50 [8]: 1.84 µM (active)
IC50 (Protein Wnt-3a): 5.72 µM (active)

N#CC1=C(N)N(c2ccccc2)C(c2ccco2)C1(C#N)C#N (stereo not given)
AC50 [2]: > 100 µM (inactive)

O=C(CSc1nc2ccccc2c(=O)n1-c1ccccc1)N1CCN(CCO)CC1
AC50 [6]: 12.3 µM (active)

C[C@@]12C(=O)N(CC3CCCO3)CC(=O)N1[C@H]1c3cc(Cl)ccc3OC[C@@H]1[C@@H]2c1ccccc1 (stereo not given in full)
AC50 [9]: 1.34 µM (active)
AC50 [10]: 2.64 µM (active)
AC50 [11]: 2.05 µM (active)
AC50 [12]: 2.52 µM (active)

COc1cccc(NC(=O)CN(C)C(=O)c2ccc(S(=O)(=O)Nc3ccccc3C)cc2)c1
AC50 [2]: > 100 µM (inactive)

C[C@@H]1CN([C@@H](C)CO)C(=O)c2cccc(NC(=O)C3CCCCC3)c2O[C@@H]1CN(C)Cc1ccc(C(=O)Nc2ccccc2N)cc1
AC50 [13]: 1.33 µM (active)

Cc1ccc(S(=O)(=O)Nc2ccc3c(c2)CC(=O)N([C@H](C)CO)C[C@@H](C)[C@@H](CN(C)S(=O)(=O)c2cccs2)O3)cc1
AC50 [13]: 2.5 µM (active)

CO[C@H]1CN(C)C(=O)c2ccc(NC(C)=O)cc2OC[C@@H](C)N(C(=O)c2ccc(F)cc2)C[C@H]1C
AC50 [6]: 11.5 µM (active)

C[C@H]1CN([C@@H](C)CO)C(=O)c2cccc(NC(=O)c3ccncc3)c2O[C@H]1CN(C)Cc1ccc(Cl)c(Cl)c1
AC50 [13]: 0.08 µM (active)

C[C@H](CO)N1C[C@H](C)[C@H](CN(C)C(=O)Nc2cccc3ccccc23)Oc2c(NC(=O)c3ccncc3)cccc2C1=O
AC50 [13]: 3.57 µM (active)

COCCNC(=O)C[C@@H]1CC[C@@H]2[C@H](COc3ccc(NC(=O)Nc4cccc(F)c4)cc3C(=O)N2C)O1
AC50 [6]: 4.17 µM (active)

CC(=O)Nc1cc(-c2ccc(N3CCN(C)CC3)cc2)cn2c(-c3cccc(C(=O)N(C)C)c3)cnc12
AC50 [1]: 8.58 µM (active)

CO[C@H](C(=O)N(C)C[C@@H]1OCc2ccccc2-c2c(n(C)c3ccccc23)C(=O)N([C@H](C)CO)C[C@@H]1C)c1ccccc1
AC50 [9]: 6.28 µM (active)
AC50 [10]: 10.2 µM (active)
AC50 [11]: 15.4 µM (active)
AC50 [12]: 6.84 µM (active)

CCCC[C@H](CN(N=O)[C@@H](Cc1ccccc1)CN(C)N=O)N(CCc1ccccc1)N=O
AC50 [9]: 3.32 µM (active)
AC50 [10]: 8.46 µM (active)
AC50 [11]: 6.02 µM (active)
AC50 [12]: 20.6 µM (active)
